Data on 21 compounds can be found in PubChem BioAssay AID328 (DTP/NCI, 2004).

Molecules are shown by their SMILES. “And” between values parts separate entries of the source, which are not always exact repeats. Equal entries are not always repeated. Inconclusive results and toxic doses are left out.

In this experiment the test system is BDF1 mice, P388 leukemia ip, median survival T/C. Briefly: NCI In Vivo Anticancer Drug Screen. Data for tumor model P388 Leukemia (intraperitoneal) in B6D2F1 (BDF1) mice. The note with it: endpoint: median survival time, higher = longer survival. The method, boiled down: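 Vehicle-dosed animals serve as the reference; survival of compound-dosed, tumour-implanted mice is divided by it.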

Setting [1] is: dose: 50.0 mg/kg/injection, schedule: Q01DX009 (ip), vehicle: saline with Tween-80.
Setting [2] is: dose: 100.0 mg/kg/injection, schedule: Q01DX009 (ip), vehicle: saline with Tween-80.
Setting [3] is: dose: 100.0 mg/kg/injection, schedule: Q04DX003 (ip), vehicle: saline with Tween-80.
[4] abbreviates: dose: 200.0 mg/kg/injection, schedule: Q01DX009 (ip), vehicle: saline with Tween-80.
Where [5] appears, read: dose: 200.0 mg/kg/injection, schedule: Q04DX003 (ip), vehicle: saline with Tween-80.
Where [6] appears, read: dose: 400.0 mg/kg/injection, schedule: Q01DX009 (ip), vehicle: saline with Tween-80.
[7] abbreviates: dose: 400.0 mg/kg/injection, schedule: Q04DX003 (ip), vehicle: saline with Tween-80.
[8] abbreviates: dose: 25.0 mg/kg/injection, schedule: Q01DX009 (ip), vehicle: saline with Tween-80.
Setting [9] is: dose: 25.0 mg/kg/injection, schedule: Q04DX003 (ip), vehicle: saline with Tween-80.
The mark [10] stands for this setting: dose: 50.0 mg/kg/injection, schedule: Q04DX003 (ip), vehicle: saline with Tween-80.
Where [11] appears, read: dose: 100.0 mg/kg/injection, schedule: Q04DX003 (ip), vehicle: saline.
The mark [12] stands for this setting: dose: 200.0 mg/kg/injection, schedule: Q04DX003 (ip), vehicle: saline.
Setting [13] is: dose: 400.0 mg/kg/injection, schedule: Q04DX003 (ip), vehicle: saline.
Where [14] appears, read: dose: 12.5 mg/kg/injection, schedule: Q01DX009 (ip), vehicle: saline with Tween-80.
[15] abbreviates: dose: 100.0 mg/kg/injection, schedule: Q01DX009 (ip), vehicle: Klucel (hydroxypropylcellulose) (HPC).
Setting [16] is: dose: 100.0 mg/kg/injection, schedule: Q04DX003 (ip), vehicle: Klucel (hydroxypropylcellulose) (HPC).
The mark [17] stands for this setting: dose: 200.0 mg/kg/injection, schedule: Q01DX009 (ip), vehicle: Klucel (hydroxypropylcellulose) (HPC).
Setting [18] is: dose: 200.0 mg/kg/injection, schedule: Q04DX003 (ip), vehicle: Klucel (hydroxypropylcellulose) (HPC).
[19] abbreviates: dose: 400.0 mg/kg/injection, schedule: Q01DX009 (ip), vehicle: Klucel (hydroxypropylcellulose) (HPC).
Setting [20] is: dose: 400.0 mg/kg/injection, schedule: Q04DX003 (ip), vehicle: Klucel (hydroxypropylcellulose) (HPC).

Take `Nc1nc(N)c2cc(N3CCCC3c3ccc(Cl)c(Cl)c3)ccc2n1` (configuration not stated): the T/C is 110 % of control (dose: 0.78 mg/kg/injection, schedule: Q01DX009 (ip), vehicle: water); 117 % of control (dose: 1.56 mg/kg/injection, schedule: Q01DX009 (ip), vehicle: water); 113 % of control (dose: 3.12 mg/kg/injection, schedule: Q01DX009 (ip), vehicle: water); 104 % of control and 109 % of control (dose: 3.12 mg/kg/injection, schedule: Q04DX003 (ip), vehicle: water); 119 % of control (dose: 6.25 mg/kg/injection, schedule: Q01DX009 (ip), vehicle: water); 110 % of control and 116 % of control (dose: 6.25 mg/kg/injection, schedule: Q04DX003 (ip), vehicle: water). The T/C is 108 % of control and 114 % of control (dose: 12.5 mg/kg/injection, schedule: Q04DX003 (ip), vehicle: water); 111 % of control (dose: 20.0 mg/kg/injection, schedule: Q04DX003 (ip), vehicle: water); 116 % of control (dose: 25.0 mg/kg/injection, schedule: Q04DX003 (ip), vehicle: water).

Regarding `COc1cc([N+](=O)[O-])c(C)cc1Nc1ccc(OC)c(OC)c1`, the T/C was 100 % of control under setting [1]; 103 % of control and 106 % of control under setting [2]; 100 % of control under setting [3]; 87 % of control and 94 % of control under setting [4]; 100 % of control under setting [5]; 97 % of control and 100 % of control under setting [6]. Moreover, under setting [7], the T/C is 90 % of control.

As for `COC(=O)CCCCC(=O)OC`, the T/C reads like this: under setting [2], 100 % of control; under setting [4], 100 % of control; under setting [6], 109 % of control.

Consider `O=[N+]([O-])OCc1c(Cl)nc(Cl)c(Cl)c1Cl`, for which the T/C under setting [8] is 115 % of control; the T/C under setting [9] was 95 % of control; the T/C under setting [1] is 110 % of control; the T/C under setting [10] is 100 % of control; the T/C under setting [3] was 108 % of control.

As to `O=Nc1c(N=O)c(N=O)c(N=O)c(N=O)c1N=O`, the T/C runs as follows: (dose: 1.25 mg/kg/injection, schedule: Q01DX010 (ip), vehicle: saline) 90 % of control; (dose: 2.5 mg/kg/injection, schedule: Q01DX010 (ip), vehicle: saline) 100 % of control; (dose: 5.0 mg/kg/injection, schedule: Q01DX010 (ip), vehicle: saline) 100 % of control; (dose: 10.0 mg/kg/injection, schedule: Q01DX010 (ip), vehicle: saline) 95 % of control; (dose: 80.0 mg/kg/injection, schedule: Q01DX010 (ip), vehicle: saline) 104 % of control.

For `ClC1OC(Cl)C(Cl)OC1Cl` (configuration not stated), the T/C was 105 % of control (dose: 6.25 mg/kg/injection, schedule: Q01DX009 (ip), vehicle: Klucel (hydroxypropylcellulose) (HPC)) and 110 % of control (dose: 12.5 mg/kg/injection, schedule: Q01DX009 (ip), vehicle: Klucel (hydroxypropylcellulose) (HPC)).

As to `Cc1ccc(C)c(CCCC(=O)O)c1`, the T/C under setting [2] is 95 % of control; the T/C under setting [3] is 100 % of control; the T/C under setting [4] is 109 % of control; the T/C under setting [5] is 104 % of control; the T/C under setting [7] is 108 % of control.

On to `O=C1N=C(C(F)(F)F)N=C1c1[nH]c(C(F)(F)F)nc1O`, for which the T/C is, setting by setting: under setting [1], 111 % of control; under setting [2], 102 % of control; under setting [3], 100 % of control; under setting [4], 102 % of control; under setting [5], 102 % of control; under setting [6], 116 % of control. Further, the T/C under setting [7] was 98 % of control.

With `Cc1ccc(NC(=O)CC#N)c(C)c1`, the T/C runs as follows: under setting [11], 109 % of control; under setting [12], 100 % of control; under setting [13], 92 % of control.

Turning to `CCOC(=O)c1cnn2c(SC)ncnc12`, the T/C is, setting by setting: under setting [14], 99 % of control; under setting [8], 111 % of control; under setting [9], 109 % of control; under setting [1], 101 % of control; under setting [10], 100 % of control; under setting [2], 99 % of control. Further, under setting [3], the T/C is 109 % of control.

Turning to `O=C1Oc2ccccc2C1=O`, the T/C is 100 % of control (dose: 50.0 mg/kg/injection, schedule: Q01DX009 (ip), vehicle: saline); 100 % of control (dose: 50.0 mg/kg/injection, schedule: Q04DX003 (ip), vehicle: saline); 100 % of control (dose: 100.0 mg/kg/injection, schedule: Q01DX009 (ip), vehicle: saline); 100 % of control under setting [11]; 100 % of control under setting [12].

As to `N#Cc1cn(C2OC(CO)C(O)C2O)c2nc(Cl)nc(N)c12` (configuration not stated), the T/C by setting is: (dose: 6.25 mg/kg/injection, schedule: Q04DX003 (ip), vehicle: saline) 112 % of control; (dose: 12.5 mg/kg/injection, schedule: Q04DX003 (ip), vehicle: saline) 166 % of control; (dose: 25.0 mg/kg/injection, schedule: Q04DX003 (ip), vehicle: saline) 166 % of control.

Take `FC(F)(F)c1ccc2c(c1)N(CCCN1CCN(CCOc3ccccc3)CC1)c1ccccc1S2`: the T/C was 96 % of control and 115 % of control (dose: 6.25 mg/kg/injection, schedule: Q04DX003 (ip), vehicle: saline with Tween-80); 93 % of control and 115 % of control (dose: 12.5 mg/kg/injection, schedule: Q04DX003 (ip), vehicle: saline with Tween-80); 114 % of control and 122 % of control under setting [9].

In the case of `O=C1C2CCCC1C(c1ccccc1)C=C2c1ccc(O)cc1` (configuration not stated), the T/C is 104 % of control under setting [3], 104 % of control under setting [5] and 114 % of control under setting [7].

Turning to `Cc1c(C)c(Cl)c(C)c(Cl)c1O`, the T/C by setting is: under setting [15], 109 % of control; under setting [16], 100 % of control; under setting [17], 100 % of control; under setting [18], 104 % of control; under setting [19], 109 % of control; under setting [20], 100 % of control.

Take `COC(=O)c1c(C)cc(OC(=O)c2c(C)c(Cl)c(O)c(Cl)c2O)cc1O`: the T/C by setting is: (dose: 1.25 mg/kg/injection, schedule: Q01DX009 (ip), vehicle: Klucel (hydroxypropylcellulose) (HPC)) 91 % of control; (dose: 2.5 mg/kg/injection, schedule: Q01DX009 (ip), vehicle: Klucel (hydroxypropylcellulose) (HPC)) 114 % of control; (dose: 5.0 mg/kg/injection, schedule: Q01DX009 (ip), vehicle: Klucel (hydroxypropylcellulose) (HPC)) 101 % of control; (dose: 10.0 mg/kg/injection, schedule: Q01DX009 (ip), vehicle: Klucel (hydroxypropylcellulose) (HPC)) 108 % of control; (dose: 20.0 mg/kg/injection, schedule: Q01DX009 (ip), vehicle: Klucel (hydroxypropylcellulose) (HPC)) 97 % of control.

With `CCCCCC#CC1OC1(C)C` (configuration not stated), the T/C under setting [14] was 97 % of control and 100 % of control; the T/C under setting [8] is 101 % of control and 103 % of control; the T/C under setting [1] is 108 % of control and 116 % of control; the T/C under setting [2] is 108 % of control and 117 % of control and 121 % of control.

As for `COC(=O)C1C2CCc3cc(OC)ccc3C2CCC1(C)C(=O)O` (configuration not stated), the T/C runs as follows: (dose: 100.0 mg/kg/injection, schedule: Q01DX001 (ip), vehicle: saline sonified) 100 % of control; (dose: 200.0 mg/kg/injection, schedule: Q01DX001 (ip), vehicle: saline sonified) 104 % of control; (dose: 400.0 mg/kg/injection, schedule: Q01DX001 (ip), vehicle: saline sonified) 100 % of control.

With `Nc1nc(CNc2ccc(Cl)cc2)nc(Nc2ccccc2)n1`, the T/C under setting [11] was 105 % of control, the T/C under setting [12] was 100 % of control and the T/C under setting [13] is 100 % of control.

In the case of `CC(O)c1ccc(-c2ccccc2)cc1` (configuration not stated), the T/C under setting [15] was 120 % of control; the T/C under setting [16] was 95 % of control; the T/C under setting [17] was 105 % of control; the T/C under setting [18] was 100 % of control; the T/C under setting [19] was 110 % of control; the T/C under setting [20] was 100 % of control.

`CCN(CC)c1ccc(/C=C2/C=Cc3ccccc32)cc1`: the T/C is 95 % of control (dose: 100.0 mg/kg/injection, schedule: Q04DX003 (ip), vehicle: saline sonified); 100 % of control (dose: 200.0 mg/kg/injection, schedule: Q04DX003 (ip), vehicle: saline sonified); 100 % of control (dose: 400.0 mg/kg/injection, schedule: Q04DX003 (ip), vehicle: saline sonified).
